In patent publication US20070049564A1 (Wyeth, priority 2005, published 2007):
Converted amounts (≈) assume the structure as drawn.

Columns and labels:
Test in all cases: MIC, broth microdilution
E. coli GC 2231 = conditions: Escherichia coli, GC2231, E. coli GC 2231
S. aureus GC 4536 = conditions: Staphylococcus aureus, GC4536, S. aureus GC 4536
S. aureus GC 2216 = conditions: Staphylococcus aureus, GC2216, S. aureus GC 2216
S. aureus GC 1131 = conditions: Staphylococcus aureus, GC1131, S. aureus GC 1131
E. coli GC 2203 = conditions: Escherichia coli, GC2203, E. coli GC 2203
E. coli GC 6465 = conditions: Escherichia coli, GC6465, E. coli GC 6465
E. faecalis GC 2267 = conditions: Enterococcus faecalis, GC2267, E. faecalis GC 2267
Experimental: (§1) Antimicrobial susceptibility testing. The in vitro activities of the antibiotics are determined by the broth microdilution method as recommended by the National Committee for Clinical Laboratory Standards (NCCLS) (1). Mueller-Hinton II broth (MHBII)(BBL Cockeysville, Md.) is the medium employed in the testing procedures. Microtiter plates containing serial dilutions of each antimicrobial agent are inoculated with each organism to yield the appropriate density (10^5 CFU/ml) in a 100 μl final volume. The plates are incubated for 18-22 hours at 35° C. in ambient air.
Representative compounds were first incubated in mouse serum for an hour prior to the in vitro testing against a panel of selected gram-positive and gram-negative bacteria strains. All compounds were also pre-incubated in water for an hour prior to testing as control.

E. coli GC 4560 = conditions: Escherichia coli, GC4560, E. coli GC 4560
S. aureus GC 6466 = conditions: Staphylococcus aureus, GC6466, S. aureus GC 6466
E. coli GC 2272 = conditions: Escherichia coli, GC2272, E. coli GC 2272
E. coli GC 4559 = conditions: Escherichia coli, GC4559, E. coli GC 4559
S. pneumoniae* GC 4465 = conditions: Streptococcus pneumoniae, S. pneumoniae* GC 4465
Experimental: as §1
Representative compounds were first incubated in mouse serum for an hour prior to the in vitro testing against a panel of selected gram-positive and gram-negative bacteria strains. All compounds were also pre-incubated in water for an hour prior to testing as control. Representative compounds of Formula I were incubated in human serum prior to MIC determination.

S. pneumoniae+ GC 4465 = conditions: Streptococcus pneumoniae, S. pneumoniae+ GC 4465
S. epidermidis GC 4935 = conditions: Staphylococcus epidermidis, GC4935, S. epidermidis GC 4935
S. aureus GC 6467 = conditions: Staphylococcus aureus, GC6467, S. aureus GC 6467
E. coli GC 2234 = conditions: Escherichia coli, GC2234, E. coli GC 2234
P. aeruginosa GC 2214 = conditions: Pseudomonas aeruginosa, GC2214, P. aeruginosa GC 2214
E. coli GC 2232 = conditions: Escherichia coli, GC2232, E. coli GC 2232
E. faecalis GC 2242 = conditions: Enterococcus faecalis, GC2242, E. faecalis GC 2242

In the case of `CCCN(CC(=O)Nc1cc(N(C)C)c2c(c1O)C(=O)C1=C(O)[C@]3(O)C(=O)C(C(N)=O)=C(O)[C@@H](N(C)C)[C@@H]3C[C@@H]1C2)C(=O)OCC` [Example 15, ethyl 2-{[(5aR,6aS,7S,10aS)-9-(aminocarbonyl)-4,7-bis(dimethylamino)-1,8,10a,11-tetrahydroxy-10,12-dioxo-5,5a,6,6a,7,10,10a,12-octahydrotetracen-2-yl]amino}-2-oxoethyl(propyl)carbamate], the MIC (E. coli GC 2231; Mouse Serum pre-incubation) is reported as greater than 64 µg/mL, the MIC (E. coli GC 2231; Water pre-incubation) is reported as greater than 64 µg/mL and the MIC (S. aureus GC 4536; Mouse Serum pre-incubation) is reported as 2 µg/mL (≈ 3.11 µM). For the same compound, the MIC (S. aureus GC 4536; Water pre-incubation) was 4 µg/mL (≈ 6.21 µM), the MIC (S. aureus GC 2216; Mouse Serum pre-incubation) was 2 µg/mL (≈ 3.11 µM) and the MIC (S. aureus GC 2216; Water pre-incubation) was 4 µg/mL (≈ 6.21 µM). The MIC (S. aureus GC 1131; Mouse Serum pre-incubation) was 2 µg/mL (≈ 3.11 µM), the MIC (S. aureus GC 1131; Water pre-incubation) was 4 µg/mL (≈ 6.21 µM) and the MIC (E. coli GC 2203; Mouse Serum pre-incubation) was 32 µg/mL (≈ 49.7 µM). The MIC (E. coli GC 2203; Water pre-incubation) was 64 µg/mL (≈ 99.4 µM), the MIC (E. coli GC 6465; Mouse Serum pre-incubation) was greater than 64 µg/mL and the MIC (E. coli GC 6465; Water pre-incubation) was greater than 64 µg/mL. The MIC (E. faecalis GC 2267; Mouse Serum pre-incubation) was 8 µg/mL (≈ 12.4 µM), the MIC (E. faecalis GC 2267; Water pre-incubation) was 8 µg/mL (≈ 12.4 µM) and the MIC (E. coli GC 4560; Mouse Serum pre-incubation) was 1 µg/mL (≈ 1.55 µM). The MIC (E. coli GC 4560; Water pre-incubation) was 1 µg/mL (≈ 1.55 µM), the MIC (S. aureus GC 6466; Mouse Serum pre-incubation) was 2 µg/mL (≈ 3.11 µM) and the MIC (S. aureus GC 6466; Water pre-incubation) was 4 µg/mL (≈ 6.21 µM). For the same compound, the MIC (E. coli GC 2272; Mouse Serum pre-incubation) was greater than 64 µg/mL, the MIC (E. coli GC 2272; Water pre-incubation) was greater than 64 µg/mL and the MIC (E. coli GC 4559; Mouse Serum pre-incubation) was greater than 64 µg/mL. The MIC (E. coli GC 4559; Water pre-incubation) was greater than 64 µg/mL, the MIC (S. pneumoniae* GC 4465; Mouse Serum pre-incubation) was 2 µg/mL (≈ 3.11 µM) and the MIC (S. pneumoniae* GC 4465; Water pre-incubation) was 2 µg/mL (≈ 3.11 µM). The MIC (S. pneumoniae+ GC 4465; Mouse Serum pre-incubation) was 4 µg/mL (≈ 6.21 µM), the MIC (S. pneumoniae+ GC 4465; Water pre-incubation) was 4 µg/mL (≈ 6.21 µM) and the MIC (S. epidermidis GC 4935; Mouse Serum pre-incubation) was 16 µg/mL (≈ 24.9 µM). It also gave an MIC (S. epidermidis GC 4935; Water pre-incubation) of 16 µg/mL (≈ 24.9 µM), an MIC (S. aureus GC 6467; Mouse Serum pre-incubation) of 16 µg/mL (≈ 24.9 µM) and an MIC (S. aureus GC 6467; Water pre-incubation) of 16 µg/mL (≈ 24.9 µM). It also gave an MIC (E. coli GC 2234; Mouse Serum pre-incubation) greater than 64 µg/mL, an MIC (E. coli GC 2234; Water pre-incubation) greater than 64 µg/mL and an MIC (P. aeruginosa GC 2214; Mouse Serum pre-incubation) greater than 64 µg/mL. It also gave an MIC (P. aeruginosa GC 2214; Water pre-incubation) greater than 64 µg/mL, an MIC (E. coli GC 2232; Mouse Serum pre-incubation) greater than 64 µg/mL and an MIC (E. coli GC 2232; Water pre-incubation) greater than 64 µg/mL. The MIC (E. faecalis GC 2242; Mouse Serum pre-incubation) was 8 µg/mL (≈ 12.4 µM) and the MIC (E. faecalis GC 2242; Water pre-incubation) was 8 µg/mL (≈ 12.4 µM).
